Experimental data taken from PubChem BioAssay (NCI).
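Compound exposure: 48 hours, 5 concentrations, 96-well plates. GI50 is the concentration that inhibits growth by half. TGI marks complete inhibition of growth.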

Assays:
Assay in all cases: DTP human tumour cell line panel, 48 h
MOLT-4 leukemia = tested on: MOLT-4 leukemia
COLO 205 colon = tested on: COLO 205 colon
NCI-H460 lung = tested on: NCI-H460 lung
UACC-257 melanoma = tested on: UACC-257 melanoma
NCI-H522 lung = tested on: NCI-H522 lung
SR leukemia = tested on: SR leukemia
K-562 leukemia = tested on: K-562 leukemia
PC-3 prostate = tested on: PC-3 prostate
HT29 colon = tested on: HT29 colon
NCI/ADR-RES ovarian = tested on: NCI/ADR-RES ovarian
A549 NSCLC = tested on: A549 NSCLC
SW-620 colon = tested on: SW-620 colon
HL-60(TB) leukemia = tested on: HL-60(TB) leukemia
786-0 renal = tested on: 786-0 renal
RPMI-8226 leukemia = tested on: RPMI-8226 leukemia
BT-549 breast = tested on: BT-549 breast
TK-10 renal = tested on: TK-10 renal
MDA-MB-435 = tested on: MDA-MB-435
HOP-62 NSCLC = tested on: HOP-62 NSCLC
LOX IMVI melanoma = tested on: LOX IMVI melanoma
SK-MEL-28 melanoma = tested on: SK-MEL-28 melanoma
A498 renal = tested on: A498 renal
OVCAR-5 ovarian = tested on: OVCAR-5 ovarian
SN12C renal = tested on: SN12C renal
MALME-3M melanoma = tested on: MALME-3M melanoma
OVCAR-3 ovarian = tested on: OVCAR-3 ovarian
HCT-116 colon = tested on: HCT-116 colon
SK-MEL-2 melanoma = tested on: SK-MEL-2 melanoma
M14 melanoma = tested on: M14 melanoma
SK-MEL-5 melanoma = tested on: SK-MEL-5 melanoma
HCT-15 colon = tested on: HCT-15 colon
UO-31 renal = tested on: UO-31 renal
OVCAR-4 ovarian = tested on: OVCAR-4 ovarian
OVCAR-8 ovarian = tested on: OVCAR-8 ovarian
RXF 393 renal = tested on: RXF 393 renal
HCC-2998 colon = tested on: HCC-2998 colon
HOP-92 NSCLC = tested on: HOP-92 NSCLC
MCF7 breast = tested on: MCF7 breast
SNB-19 CNS = tested on: SNB-19 CNS
CCRF-CEM leukemia = tested on: CCRF-CEM leukemia
EKVX NSCLC = tested on: EKVX NSCLC
CAKI-1 renal = tested on: CAKI-1 renal
NCI-H226 lung = tested on: NCI-H226 lung
SF-295 CNS = tested on: SF-295 CNS
IGROV1 ovarian = tested on: IGROV1 ovarian
SF-268 CNS = tested on: SF-268 CNS
MDA-MB-231 breast = tested on: MDA-MB-231 breast
UACC-62 melanoma = tested on: UACC-62 melanoma
U251 CNS = tested on: U251 CNS
SF-539 CNS = tested on: SF-539 CNS
KM12 colon = tested on: KM12 colon
NCI-H23 lung = tested on: NCI-H23 lung
HS 578T breast = tested on: HS 578T breast
ACHN renal = tested on: ACHN renal
DU-145 prostate = tested on: DU-145 prostate
SK-OV-3 ovarian = tested on: SK-OV-3 ovarian
SNB-75 CNS = tested on: SNB-75 CNS
T-47D breast = tested on: T-47D breast

Cc1ccc2sc3c(c2c1)OC(N)=C(C#N)C3c1cccc(F)c1 (stereo unspecified)
GI50 (MOLT-4 leukemia): 414 nM
TGI (MOLT-4 leukemia): 33600 nM
GI50 (COLO 205 colon): 276 nM
TGI (COLO 205 colon): 779 nM
GI50 (NCI-H460 lung): 52.1 nM
TGI (NCI-H460 lung): 1370 nM
GI50 (UACC-257 melanoma): 162 nM
TGI (UACC-257 melanoma): 23300 nM
GI50 (NCI-H522 lung): 22.8 nM
TGI (NCI-H522 lung): 94.6 nM
GI50 (SR leukemia): 90 nM
TGI (SR leukemia): 30800 nM
GI50 (K-562 leukemia): 42.6 nM
TGI (K-562 leukemia): > 40800 nM
GI50 (PC-3 prostate): 305 nM
TGI (PC-3 prostate): 14800 nM
GI50 (HT29 colon): 250 nM
TGI (HT29 colon): 878 nM
GI50 (NCI/ADR-RES ovarian): 57.4 nM
TGI (NCI/ADR-RES ovarian): 1760 nM
GI50 (A549 NSCLC): 217 nM
TGI (A549 NSCLC): 11600 nM
GI50 (SW-620 colon): 111 nM
TGI (SW-620 colon): 13400 nM
GI50 (HL-60(TB) leukemia): 235 nM
TGI (HL-60(TB) leukemia): 671 nM
GI50 (786-0 renal): 458 nM
TGI (786-0 renal): 6490 nM
GI50 (RPMI-8226 leukemia): 324 nM
TGI (RPMI-8226 leukemia): 9770 nM
GI50 (BT-549 breast): 137 nM
TGI (BT-549 breast): 1170 nM
GI50 (TK-10 renal): 1580 nM
TGI (TK-10 renal): 13500 nM
GI50 (MDA-MB-435): 24.1 nM
TGI (MDA-MB-435): 62 nM
GI50 (HOP-62 NSCLC): 265 nM
TGI (HOP-62 NSCLC): 3970 nM
GI50 (LOX IMVI melanoma): 160 nM
TGI (LOX IMVI melanoma): 2450 nM
GI50 (SK-MEL-28 melanoma): 825 nM
TGI (SK-MEL-28 melanoma): 20100 nM
GI50 (A498 renal): 3350 nM
TGI (A498 renal): 17200 nM
GI50 (OVCAR-5 ovarian): 370 nM
TGI (OVCAR-5 ovarian): 7580 nM
GI50 (SN12C renal): 411 nM
TGI (SN12C renal): 6170 nM
GI50 (MALME-3M melanoma): 99.2 nM
TGI (MALME-3M melanoma): 11200 nM
GI50 (OVCAR-3 ovarian): 134 nM
TGI (OVCAR-3 ovarian): 4100 nM
GI50 (HCT-116 colon): 102 nM
TGI (HCT-116 colon): 1950 nM
GI50 (SK-MEL-2 melanoma): 308 nM
TGI (SK-MEL-2 melanoma): 18700 nM
GI50 (M14 melanoma): 137 nM
TGI (M14 melanoma): 1900 nM
GI50 (SK-MEL-5 melanoma): 391 nM
TGI (SK-MEL-5 melanoma): 2350 nM
GI50 (HCT-15 colon): 75.5 nM
TGI (HCT-15 colon): 6400 nM
GI50 (UO-31 renal): 375 nM
TGI (UO-31 renal): 11100 nM
GI50 (OVCAR-4 ovarian): 1340 nM
TGI (OVCAR-4 ovarian): 7480 nM
GI50 (OVCAR-8 ovarian): 257 nM
TGI (OVCAR-8 ovarian): 1250 nM
GI50 (RXF 393 renal): 36.5 nM
TGI (RXF 393 renal): 189 nM
GI50 (HCC-2998 colon): 264 nM
TGI (HCC-2998 colon): 1410 nM
GI50 (HOP-92 NSCLC): 4320 nM
TGI (HOP-92 NSCLC): 20500 nM
GI50 (MCF7 breast): 30 nM
TGI (MCF7 breast): 11700 nM
GI50 (SNB-19 CNS): 339 nM
TGI (SNB-19 CNS): 13000 nM
GI50 (CCRF-CEM leukemia): 312 nM
TGI (CCRF-CEM leukemia): 24700 nM
GI50 (EKVX NSCLC): 573 nM
TGI (EKVX NSCLC): 18900 nM
GI50 (CAKI-1 renal): 183 nM
TGI (CAKI-1 renal): 11500 nM
GI50 (NCI-H226 lung): 282 nM
TGI (NCI-H226 lung): 2810 nM
GI50 (SF-295 CNS): 79.9 nM
TGI (SF-295 CNS): 770 nM
GI50 (IGROV1 ovarian): 318 nM
TGI (IGROV1 ovarian): 12700 nM
GI50 (SF-268 CNS): 822 nM
TGI (SF-268 CNS): 24600 nM
GI50 (MDA-MB-231 breast): 457 nM
TGI (MDA-MB-231 breast): 3170 nM
GI50 (UACC-62 melanoma): 53.5 nM
TGI (UACC-62 melanoma): 12500 nM
GI50 (U251 CNS): 151 nM
TGI (U251 CNS): 1950 nM
GI50 (SF-539 CNS): 155 nM
TGI (SF-539 CNS): 547 nM
GI50 (KM12 colon): 309 nM
TGI (KM12 colon): 16900 nM
GI50 (NCI-H23 lung): 205 nM
TGI (NCI-H23 lung): 2560 nM
GI50 (HS 578T breast): 194 nM
TGI (HS 578T breast): 8970 nM
GI50 (ACHN renal): 450 nM
TGI (ACHN renal): 10700 nM
GI50 (DU-145 prostate): 541 nM
TGI (DU-145 prostate): > 33200 nM
GI50 (SK-OV-3 ovarian): 324 nM
TGI (SK-OV-3 ovarian): 10700 nM
GI50 (SNB-75 CNS): 158 nM
TGI (SNB-75 CNS): 1360 nM
GI50 (T-47D breast): 35.1 nM
TGI (T-47D breast): 26900 nM
